The structures appear in SMILES notation. Where a SMILES comes first, the peptide text is derived from it. [ ]: non-standard residue; d: D form. The star is where a group is joined. Sta = CC(C)C[C@H](N)[C@@H](O)CC(=O)O; Boc = CC(C)(C)OC(=O)*; GABA = NCCCC(=O)O

The experiment has as its target T1, Renin (Homo sapiens, UniProt P00797).
T1 sequence (P00797 whole entry): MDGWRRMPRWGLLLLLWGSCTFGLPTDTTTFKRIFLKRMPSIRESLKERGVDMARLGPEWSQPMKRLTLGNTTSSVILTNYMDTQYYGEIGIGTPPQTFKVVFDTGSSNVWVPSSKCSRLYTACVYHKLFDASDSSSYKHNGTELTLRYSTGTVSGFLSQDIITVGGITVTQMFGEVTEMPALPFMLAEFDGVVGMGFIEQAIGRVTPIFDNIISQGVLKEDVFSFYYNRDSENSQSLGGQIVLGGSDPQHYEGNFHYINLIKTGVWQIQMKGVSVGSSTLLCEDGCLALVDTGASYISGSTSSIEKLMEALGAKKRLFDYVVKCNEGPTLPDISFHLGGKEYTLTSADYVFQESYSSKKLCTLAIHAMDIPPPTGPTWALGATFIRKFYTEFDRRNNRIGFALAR
Kind of experiment: Inhibitory activity against renin was determined.
In general, IC50 refers to the concentration that inhibits the measured activity by half. Lower therefore signals greater potency. In turn, `CC(C)C[C@H](NC(=O)[C@H](Cc1c[nH]cn1)NC(=O)[C@H](Cc1ccccc1)NC(=O)OC(C)(C)C)[C@@H](O)[C@H](O)C(=O)NCCCC(=O)O` gave an IC50 of 3 µM. In the case of `CC(C)C[C@H](NC(=O)[C@H](Cc1cnc[nH]1)NC(=O)[C@H](Cc1ccccc1)NC(=O)OC(C)(C)C)[C@H](O)[C@@H](O)C(=O)NCCCC(=O)O` it was 63 µM. Then `CC(C)C[C@H](NC(=O)[C@H](Cc1cnc[nH]1)NC(=O)[C@H](Cc1ccccc1)NC(=O)OC(C)(C)C)[C@@H](O)CC(=O)NCCCC(=O)O` (Boc-FH[Sta][GABA]-OH), with 3.2 µM.

For the origin of these results see ChEMBL document CHEMBL1151028, “Synthesis of -hydroxy statine through a facially selective osmylation of a chiral -amido crotonate” (Bioorg Med Chem Lett, 1995).
